The NIST ThermoML archive (doi:10.1021/je901030f)
Numbers after ± are expanded uncertainties.

Settings: 101.33 kPa, Crystal, Buoyancy - hydrostatic balance with magnetic suspension - one sinker

Compound	mass density (903 K)	mass density (913 K)	mass density (973 K)	mass density (983 K)	mass density (993 K)	mass density (1013 K)	mass density (1023 K)	mass density (1033 K)	mass density (1043 K)	further results
[Cl-].[Rb+] [rubidium chloride]	2578.4 ± 13 kg/m3	2573.5 ± 13 kg/m3	2547.6 ± 13 kg/m3	2550.3 ± 13 kg/m3	2556.4 ± 13 kg/m3	–	–	–	–	mass density (923 K): 2567.8 ± 13 kg/m3; mass density (933 K): 2562.2 ± 13 kg/m3; mass density (943 K): 2556.1 ± 13 kg/m3; mass density (953 K): 2551.7 ± 13 kg/m3; mass density (963 K): 2548.6 ± 13 kg/m3
[Cl-].[Cs+] [cesium chloride]	3039.5 ± 15 kg/m3	3041.8 ± 16 kg/m3	–	–	–	–	–	–	–	mass density (843 K): 3074.5 ± 16 kg/m3; mass density (853 K): 3067.6 ± 16 kg/m3; mass density (863 K): 3060.2 ± 16 kg/m3; mass density (873 K): 3052.4 ± 16 kg/m3; mass density (883 K): 3046 ± 16 kg/m3; mass density (893 K): 3040.9 ± 15 kg/m3
[Cl-].[K+] [potassium chloride]	–	–	1805.8 ± 9.2 kg/m3	1803.6 ± 9.2 kg/m3	1800.6 ± 9.2 kg/m3	1794.5 ± 9.1 kg/m3	1793.6 ± 9.1 kg/m3	1793.6 ± 9.1 kg/m3	1796.6 ± 9.1 kg/m3	mass density (1003 K): 1797.1 ± 9.1 kg/m3
[Cl-].[Na+] [sodium chloride]	–	–	–	–	–	1931.2 ± 9.8 kg/m3	1905.8 ± 9.7 kg/m3	1890.4 ± 9.6 kg/m3	1888.3 ± 9.6 kg/m3	mass density (1053 K): 1882 ± 9.6 kg/m3; mass density (1063 K): 1884.9 ± 9.6 kg/m3; mass density (1073 K): 1889.8 ± 9.6 kg/m3
